In patent publication US9447132B2 (priority 2013, dated 2016):
Marks after values point to notes of the source that are not given here.

Legend:
[1] = system: primary hepatocytes; assay: Formula IV concentration from Formula II dosing in primary hepatocytes; assay type: in vitro ADME, human
From the text: The general methods of Example 13 were used to determine compound concentrations.

[2] = system: hepatocytes (human, dog, monkey and rat); assay: Half-lives of active triphosphate in hepatocytes from four species; assay type: in vitro ADME; settings: across hepatocytes from four species (human, dog, monkey, rat)
Protocol: (§1) Human hepatocyte cells used for half-life determinations were human liver hepatocyte 12-well format cells and were seeded at 0.67 million cells per well. Canine hepatocyte cells used for half-life determinations were beagle dog liver hepatocyte 12-well format cells and were seeded at 0.67 million cells per well. Monkey hepatocyte cells used for half-life determinations were Cynomolgus monkey liver hepatocyte 12-well format cells, and were seeded at 0.9 million cells per well. Rat hepatocyte cells for half-life determinations were Sprague-Dawley (SD) rat liver hepatocyte 12-well format cells, and were seeded at 0.67 million cells per well. All cells were obtained from Life Technologies.

[3] = system: Sprague-Dawley (SD) rat liver hepatocyte; assay: Half-life of active triphosphate in rat hepatocytes; assay type: in vitro ADME; settings: parenthesis = 95% confidence interval
Protocol: as §1

[4] = system: beagle dog liver hepatocyte; assay: Half-life of active triphosphate in dog hepatocytes; assay type: in vitro ADME; settings: parenthesis = 95% confidence interval
Protocol: as §1

[5] = system: human liver hepatocyte; assay: Half-life of active triphosphate in human hepatocytes; assay type: in vitro ADME; settings: for t1/2 (hr): Human hepatocytes, parenthesis = 95% confidence interval
Protocol: as §1

[6] = system: human liver hepatocytes; assay: Triphosphate levels (Formula IV, GS-7977-TP) in human hepatocytes; assay type: in vitro ADME; settings: for time at which peak levels were obtained: 5 μM parent, 48 hours of incubation
Protocol: […] Cells were washed twice with cold PBS.
Supernatants were removed and analyzed by LC-MS/MS. […] Samples were centrifuged at 3000 rpm for 15 minutes. Supernatants were removed and analyzed by LC-MS/MS.

[7] = system: Cynomolgus monkey liver hepatocyte; assay: Half-life of active triphosphate in monkey hepatocytes; assay type: in vitro ADME; settings: parenthesis = 95% confidence interval
Protocol: as §1

[8] = system: HCV genotype 1, 2 or 3; settings: once-daily 300 mg for seven days, treatment naïve patients; cited from earlier work
[9] = system: HCV; settings: several large clinical trials; cited from earlier work
[10] = system: HCV genotype 1; settings: cited from earlier work
[11] = system: HCV replicon; assay: Predicted EC50 against HCV replicon in primary human hepatocytes; assay type: cell-based; settings: Hepatitis C virus, Hepatocyte
[12] = Buffer stability (stability of the compounds in the absence of cells); assay type: physicochemical; settings: 24 hr
[13] = 2 hr incubation with 5 μM Formula II
[14] = 4 hr incubation with 5 μM Formula II
[15] = 8 hr incubation with 5 μM Formula II
[16] = 25 hr incubation with 5 μM Formula II
[17] = 48 hr incubation with 5 μM Formula II

C[C@]1(O)C(n2ccc(=O)[nH]c2=O)OC(COP(=O)(O)OP(=O)(O)OP(=O)(O)O)[C@H]1O (stereo partly drawn) [Formula IV]
Formula IV concentration higher than in Huh-luc/neo cells ([1]; 50 nM Formula II, primary hepatocytes vs Huh-luc/neo cells): 5- to 8 fold
level of Formula IV ([1]; Formula II at 50 nM, primary hepatocytes, 24 hours): 9.2-16.2 pmol/million cells
half-lives range [2]: 10 to 30 h
t1/2 (hr) [3]: 10.2 (8.6-12.5) hr
t1/2 (hr) [4]: 29.6 (22.0-45.4) hr
t1/2 (hr) [5]: 27.6 (26.0-29.4)^a hr
half-life ([5]; human hepatocytes): > 24 h
time at which peak levels were obtained ([6]; human hepatocytes): > 48 h
Formula IV (pmol/million cells) rep 1 [6, 13]: 72.1 pmol/million cells
Formula IV (pmol/million cells) rep 2 [6, 13]: 71.5 pmol/million cells
Formula IV (pmol/million cells) rep 3 [6, 13]: 67.9 pmol/million cells
Formula IV (pmol/million cells) rep 1 [6, 14]: 130 pmol/million cells
Formula IV (pmol/million cells) rep 2 [6, 14]: 129 pmol/million cells
Formula IV (pmol/million cells) rep 3 [6, 14]: 129 pmol/million cells
Formula IV (pmol/million cells) rep 1 [6, 15]: 218 pmol/million cells
Formula IV (pmol/million cells) rep 2 [6, 15]: 217 pmol/million cells
Formula IV (pmol/million cells) rep 3 [6, 15]: 236 pmol/million cells
Formula IV (pmol/million cells) Mean+StDev [6, 16]: 486 pmol/million cells
Formula IV (pmol/million cells) rep 1 [6, 16]: 506 pmol/million cells
Formula IV (pmol/million cells) rep 2 [6, 16]: 465 pmol/million cells
Formula IV (pmol/million cells) rep 3 [6, 16]: 488 pmol/million cells
Formula IV (pmol/million cells) rep 1 [6, 17]: 619 pmol/million cells
Formula IV (pmol/million cells) rep 2 [6, 17]: 581 pmol/million cells
Formula IV (pmol/million cells) rep 3 [6, 17]: 575 pmol/million cells
t1/2 (hr) [7]: 14.5 (11.8-18.9) hr

CC(C)OC(=O)[C@@H](C)N[P@@](=O)(OC[C@H]1O[C@@H](n2ccc(=O)[nH]c2=O)[C@](C)(Cl)[C@@H]1O)Oc1ccccc1 [IDX21437]
mean maximum reduction in viral load [8]: 4.2-4.3 log 10 IU/mL

CC(C)OC(=O)[C@H](C)N[P@](=O)(OC[C@H]1O[C@@H](n2ccc(=O)[nH]c2=O)[C@@](C)(F)C1O)Oc1ccccc1 (stereo partly drawn) [Sovaldi, Sofosbuvir]
sustained viral response (SVR) of twelve weeks, trial participants [9]: 50-90%

C[C@@]1(F)[C@H](O)[C@@H](COP(=O)(O)OP(=O)(O)OP(=O)(O)O)O[C@H]1n1ccc(=O)[nH]c1=O [GS-7977-TP, reference compound]
half-lives range [2]: 8 to 23 h
t1/2 (hr) [3]: 7.6 (6.4-9.3) hr
t1/2 (hr) [4]: 17.7 (15.0-21.5) hr
t1/2 (hr) [5]: 22.6 (21.5-23.9) hr
time at which peak levels were obtained ([6]; human hepatocytes): 24 h
intracellular conversion to triphosphate, greater than that of Formula IV from Formula II ([6]; over a 48 hour period, 5 μM, human hepatocytes): 2 fold
t1/2 (hr) [7]: 9.3 (7.9-11.4) hr

CC(C)OC(=O)[C@H](C)NP(=S)(OC[C@H]1O[C@@H](n2ccc(=O)[nH]c2=O)[C@](C)(O)[C@@H]1O)Oc1ccccc1 (stereo partly drawn) [VX-135]
completion of treatment rate (SVR4) ([10]; eleven patients who completed 12 weeks of treatment, with daclatasvir): 91%
sustained viral response rate four weeks after completion of treatment (SVR4) ([10]; intent-to-treat, treatment-naïve genotype 1, 200 mg VX-135 in combination with daclatasvir): 83%

[2H]c1cn([C@@H]2O[C@H](C([2H])([2H])OP(=O)(N[C@@H](C)C(=O)OC(C)C)Oc3ccccc3)[C@@H](O)[C@@]2(C)O)c(=O)[nH]c1=O (stereo partly drawn) [Formula II]
EC50 [11]: 6.25 to 10 nM
Buffer Stability Parent T24 hr 37° C. ([12]; Table 1): 97
Buffer Stability Parent T24 hr 37° C. ([12]; Table 2): 97
